Patent US20230381156A1, “TREATMENT OF BREAST CANCER USING COMBINATION THERAPIES COMPRISING GDC-9545 AND IPATASERTIB” (Genentech, Inc., priority 2021, published 2023)

Key:
[1] = test system: ER+ breast cancer models of ESR1-wild type and ESR1-mutation-bearing disease; test: Xenograft models / ER+ breast cancer models
[2] = test system: frontline patients; details: NCT01602380; cited from earlier work
[3] = Plasma protein binding / free concentration versus fulvestrant; type: in vitro ADME
[4] = test system: ER (wild-type and ESR1-mutant contexts); test: In vitro cell and biochemical assays, potency versus fulvestrant
[5] = Human steady-state total drug exposure versus fulvestrant; type: in vivo; details: GDC-9545 30 mg QD versus fulvestrant 500 mg IM monthly
[6] = target: T1, ER (Homo sapiens, UniProt P03372); test: Competition with estrogens for binding to the ER
T1 sequence (P03372 1-595): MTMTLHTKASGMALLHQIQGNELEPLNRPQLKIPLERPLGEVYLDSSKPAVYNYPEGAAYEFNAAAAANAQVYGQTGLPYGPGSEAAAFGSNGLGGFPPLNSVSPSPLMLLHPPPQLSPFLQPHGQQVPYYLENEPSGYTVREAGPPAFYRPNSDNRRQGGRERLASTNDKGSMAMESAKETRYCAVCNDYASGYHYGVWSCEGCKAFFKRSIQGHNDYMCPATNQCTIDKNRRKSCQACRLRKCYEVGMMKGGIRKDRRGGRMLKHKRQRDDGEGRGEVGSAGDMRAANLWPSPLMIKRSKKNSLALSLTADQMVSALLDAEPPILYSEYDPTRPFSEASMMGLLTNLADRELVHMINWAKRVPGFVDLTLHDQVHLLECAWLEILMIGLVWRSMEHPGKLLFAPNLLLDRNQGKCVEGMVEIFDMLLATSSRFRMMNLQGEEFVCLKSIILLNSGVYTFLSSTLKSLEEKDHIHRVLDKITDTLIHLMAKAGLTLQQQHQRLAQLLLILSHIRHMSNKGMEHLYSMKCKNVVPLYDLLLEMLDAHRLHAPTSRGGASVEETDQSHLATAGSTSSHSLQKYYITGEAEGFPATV

[7] = test system: CDK4/6i-resistant breast cancer cell line; details: Iida et al. 2020; cited from earlier work

SMILES: C[C@]12CC[C@@H]3c4ccc(O)cc4C[C@@H](CCCCCCCCC[S+]([O-])CCCC(F)(F)C(F)(F)F)[C@H]3[C@@H]1CC[C@@H]2O (stereo partly shown) [Fulvestrant, reference compound]
- efficacy in xenograft models compared with GDC-9545 ([1]; fulvestrant dosed according to a clinically relevant dosing scheme): less efficacious than GDC-9545
- clinical benefit versus anastrozole [2]: benefit over anastrozole

SMILES: C[C@@H]1Cc2c([nH]c3ccccc23)[C@@H](c2c(F)cc(NC3CN(CCCF)C3)cc2F)N1CC(F)(F)CO [GDC-9545, 3-((1R,3R)-1-(2,6-difluoro-4-((1-(3-fluoropropyl)azetidin-3-yl)amino)phenyl)-3-methyl-1,3,4,9-tetrahydro-2H-pyrido[3,4-b]indol-2-yl)-2,2-difluoropropan-1-ol]
- nonclinical activity in ER+ breast cancer models ([1]; ESR1-wild type and ESR1-mutation-bearing disease): robust nonclinical activity
- free concentration compared with fulvestrant [3]: higher
- plasma protein binding compared with fulvestrant [3]: lower
- potency relative to fulvestrant [4]: up to 10 times
- human steady-state total drug exposure relative to fulvestrant [5]: approximately 10 fold
- potency of competition with estrogens for binding to the ER [6]: low nanomolar potency

SMILES: Cc1nc(NC(=O)N2CCC[C@H]2C(N)=O)sc1-c1ccnc(C(C)(C)C(F)(F)F)c1 [alpelisib]
- response of resistant cells in cell growth analysis [7]: remain responsive

SMILES: CO[C@H]1C[C@@H]2CC[C@@H](C)[C@@](O)(O2)C(=O)C(=O)N2CCCC[C@H]2C(=O)O[C@H]([C@H](C)C[C@@H]2CC[C@@H](OCCO)[C@H](OC)C2)CC(=O)[C@H](C)/C=C(\C)[C@@H](O)[C@@H](OC)C(=O)[C@H](C)C[C@H](C)/C=C/C=C/C=C/1C [everolimus]
- response of resistant cells in cell growth analysis [7]: remain responsive
